Type in all cases: physicochemical
Series [1] in a line: Singlet oxygen quantum yield (photoinduced singlet oxygen) in ethanol. Conditions: for singlet oxygen quantum yield (ΦA): in ethanol, before light exposure. The source says: The quantum yield of the photoinduced singlet oxygen of Pheo (0.52) decreases to 0.05 for Pheo 16 (see Table 1).
(§1) They equal to the parameters of the free Pheo.

Series [2] can be described thus: Fluorescence life time in ethanol. The note with it: for Fluorescence life time (τFl): for Pheo 16 the longer component of a double exponential decay; for Fluorescence life time (τFl), second decay component: double exponential decay.
The nature of series [3]: Fluorescence intensity in ethanol. Conditions: versus fluorescence intensity of Pheo in ethanol. The source says: The fluorescence spectra of al samples show nearly the same shape. However, the fluorescence intensity of Pheo 16 in ethanol is 50 times smaller than the fluorescence intensity of Pheo in ethanol (see FIG. 2).
Series [4] in a line: Release of Pheo from dendrimer complex by light exposure (MALDI). Conditions: after 30 min light exposure with UV lamp (~1 kJ).
Description: as §1
However, this process occurs only in the presence of oxygen. Presumably, the primary generated singlet oxygen caused the separation of the bonds between the dye molecules and the dendrimer.

Experimental findings from patent US20060292112A1, “Dendrimer-photosensitizer complexes for medical applications” (priority 1999, published 2006) are described below.

In the case of Pheophorbide a [reference compound], in series [1], the “singlet oxygen quantum yield (ΦA)” value is on record as 0.52. The “Fluorescence life time (τFl)” value was found to be 5.7 ± 0.2 ns in series [2] and 5.7 ns in series [2] (listed as Pheo).

For `C=Cc1c(C)c2cc3nc(c4c5[nH]c(cc6nc(cc1[nH]2)C(C)=C6CC)c(C)c5C(=O)[C@@H]4C(=O)OC)[C@@H](CCC(=O)ON1C(=O)CCC1=O)[C@@H]3C` [Pheo-succinimide ester, pheophorbide a-succinimide ester], the “singlet oxygen quantum yield (ΦA)” value in series [1] worked out at 0.55. Also, the “Fluorescence life time (τFl)” value in series [2] was found to be 6.1 ± 0.3 ns.

For the compound “Pheophorbide a-diaminobutane-polypropylene-imine Dendrimer 3.0 Complex [Pheo 16]”, the “fluorescence intensity relative to Pheo” value in series [3] came out at 50 times smaller. For the same compound, the “release of Pheo on light exposure” value in series [4] is listed as “release of Pheo”. Moreover, the “singlet oxygen quantum yield after light exposure” value in series [1] (after light exposure of a 3 ml sample with 40 J and 514 nm) is recorded as 0.47. The “singlet oxygen quantum yield (ΦA)” value in series [1] is 0.05. In addition, in series [2] (relation of amplitudes 2 to 1), the “Fluorescence life time (τFl), second decay component” value was 0.5 ns and the fluorescence lifetime, first component of double exponential decay came out at 4.5 ns. Besides, the “Fluorescence life time (τFl), second decay component” value in series [2] (relation of amplitudes 2 to 1, listed as Pheo-16-dendrimer complex) is 0.5 ± 0.3 ns. For the same compound, in series [2], the “Fluorescence life time (τFl)” value worked out at 4.9 ± 0.3 ns.
